Measured values taken from patent EP0355039A2, “Methods and means for controlling the stability of proteins” (priority 1988, dated 1990).

Tests used:
Assay type in all cases: biochemical
[1] = molecular target: T1, Actinoplanes missouriensis (DSM 43046) D-glucose isomerase (D-xylose isomerase, EC 5.3.1.5) EcoAmi(DSM) GI, wild type (WT-GI) (Actinoplanes missouriensis, UniProt P12851); experiment: Glucose isomerase catalytic parameters (D-sorbitol dehydrogenase coupled assay for D-xylose; cysteine-carbazole method for D-glucose)
T1 construct: made in house; host or cells: E. coli K514
T1 sequence (P12851 whole entry): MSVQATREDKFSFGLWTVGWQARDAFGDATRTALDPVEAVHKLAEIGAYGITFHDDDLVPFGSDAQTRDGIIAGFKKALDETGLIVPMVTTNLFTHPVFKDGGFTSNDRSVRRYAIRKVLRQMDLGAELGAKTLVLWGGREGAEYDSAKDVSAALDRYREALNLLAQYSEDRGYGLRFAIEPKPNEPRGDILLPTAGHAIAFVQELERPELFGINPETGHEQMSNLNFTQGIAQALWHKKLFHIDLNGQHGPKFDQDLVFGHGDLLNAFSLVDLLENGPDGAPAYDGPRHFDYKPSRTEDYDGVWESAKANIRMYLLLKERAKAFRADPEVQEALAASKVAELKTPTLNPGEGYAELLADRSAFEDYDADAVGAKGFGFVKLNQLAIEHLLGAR
Method: (§1) The enzymatic activity of glucose isomerase was assayed as described below (1 unit of enzymatic activity produces 1.0 micromole of product -D-xylulose or D-fructose- per minute; therefore, specific activity -spa- is expressed as units per mg of GI enzyme).
(§2) In the D-Sorbitol Dehydrogenase Coupled Assay, enzymatic determination of D-xylulose was performed at 35°C as previously described (Kersters-Hilderson et al., 1987) in 50mM triethanolamine, pH 7.5, 10mM MgSO₄, and 0.1 M xylose, in the presence of ∼ 2 x 10⁻⁸ M D-sorbitol dehydrogenase (L-iditol : NAD oxidoreductase, EC 1.1.1.14), and 0.15mM NADH, except that the incubation buffer also included 1mM ethylenebis(oxyethylenenitrilo)tetraacetic acid (EGTA). Glucose isomerase final concentration in this assay was about 2.5 x 10⁻³ mg/ml, and precisely determined as described above.
(§3) With glucose as a substrate, GI activity can be assayed by measuring the amount of D-fructose produced during the isomerization reaction using the cysteine-carbazole method which is based on the reaction of ketosugars with carbazole in acids to yield a purple product (Dische and Borenfreund, 1951).

[2] = molecular target: T2, Actinoplanes missouriensis (DSM 43046) D-glucose isomerase EcoAmi(DSM) GI mutant K253Q (Lys-253 to Gln) (Actinoplanes missouriensis, UniProt P12851, K253Q)
T2 construct: made in house; host or cells: E. coli K514
T2 sequence (P12851 whole entry K253Q): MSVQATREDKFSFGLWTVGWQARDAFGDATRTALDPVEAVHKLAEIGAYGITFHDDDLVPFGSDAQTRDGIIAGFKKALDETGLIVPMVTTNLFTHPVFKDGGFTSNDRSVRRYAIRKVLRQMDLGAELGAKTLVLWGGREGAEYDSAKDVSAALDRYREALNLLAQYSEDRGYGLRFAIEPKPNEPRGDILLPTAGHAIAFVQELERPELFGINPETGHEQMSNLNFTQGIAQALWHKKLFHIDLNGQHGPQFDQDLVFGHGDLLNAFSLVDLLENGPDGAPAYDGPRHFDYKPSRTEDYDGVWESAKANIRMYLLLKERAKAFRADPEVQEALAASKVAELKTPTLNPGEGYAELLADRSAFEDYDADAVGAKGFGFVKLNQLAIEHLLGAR
Method: as §1, §2, §3

[3] = molecular target: T3, Actinoplanes missouriensis (DSM 43046) D-glucose isomerase EcoAmi(DSM) GI mutant K253R (Lys-253 to Arg) (Actinoplanes missouriensis, UniProt P12851, K253R)
T3 construct: made in house; host or cells: E. coli K514
T3 sequence (P12851 whole entry K253R): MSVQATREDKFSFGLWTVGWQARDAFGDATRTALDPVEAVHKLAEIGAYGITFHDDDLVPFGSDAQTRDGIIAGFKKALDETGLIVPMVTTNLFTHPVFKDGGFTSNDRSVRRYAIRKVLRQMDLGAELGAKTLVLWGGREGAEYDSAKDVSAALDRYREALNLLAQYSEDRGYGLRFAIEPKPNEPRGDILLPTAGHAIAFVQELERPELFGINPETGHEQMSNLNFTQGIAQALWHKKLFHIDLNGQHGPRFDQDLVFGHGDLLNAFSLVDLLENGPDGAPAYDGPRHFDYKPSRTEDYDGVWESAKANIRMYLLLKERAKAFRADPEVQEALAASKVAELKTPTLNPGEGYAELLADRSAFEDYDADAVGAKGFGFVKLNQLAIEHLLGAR
Method: as §1, §2, §3

[4] = D-xylose as substrate, coupled assay, 35°C, 50mM triethanolamine pH 7.5, 10mM MgSO4

| Substance | Vmax (Glucose) ([1]; D-glucose as substrate) | Vmax (Glucose) ([2]; D-glucose as substrate) | Vmax (Glucose) ([3]; D-glucose as substrate) | Km [1, 4] | Vmax (Xylose) [1, 4] | Km [2, 4] | Vmax (Xylose) [2, 4] | Km [3, 4] | Vmax (Xylose) [3, 4] |
| --- | --- | --- | --- | --- | --- | --- | --- | --- | --- |
| D-glucose | 30.6 units per mg of enzyme | 29.0 units per mg of enzyme | 27.2 units per mg of enzyme | – | – | – | – | – | – |
| D-xylose | – | – | – | 4.8 mM | 24.2 units per mg of enzyme | 4.4 mM | 15.1 units per mg of enzyme | 5.3 mM | 24.6 units per mg of enzyme |
